Data from patent US9957257B2, “Amide compounds as 5-HT4 receptor agonists” (SUVEN LIFE SCIENCES LIMITED, priority 2015, dated 2018).
Structures can show the parent of a compound that is named as a salt.

How the values were obtained:
[1] = Rodent brain penetration study; type: in vivo, Male Wistar rats; conditions: male, Wistar, rat, 3 mg/kg, oral (gavage), read-out: Single dose Brain Penetration (Cb/Cp)
Protocol: Male Wistar rats (225±25 grams) were used as experimental animals. Three animals were housed in each cage. Animals were given water and food ad libitum throughout the experiment and maintained on a 12 hours light/dark cycle. Brain penetration was determined in discrete manner in rats. One day prior to dosing day, male wistar rats (225-250 grams) were acclimatized. After acclimatization the rats were grouped according to their weight. In each group, 3 animals were kept in individual cage and allowed free access to food and water. At each time point (0.50, 1 and 2 hours) n=3 animals were used. The test compounds were suitably preformulated and administered orally at (free base equivalent) 3 mg/kg. Blood samples were removed via, cardiac puncture by using isoflurane anesthesia. The animals were sacrificed to collect brain tissue. Plasma was separated and brain samples were homogenized and stored frozen at −20° C. until analysis. The concentrations of the test compounds in plasma and brain were determined using LC-MS/MS method. The test compounds were quantified in plasma and brain homogenate by qualified LC-MS/MS method using suitable extraction technique. The test compounds were quantified in the calibration range of 1-500 ng/mL in plasma and brain homogenate. Study samples were analyzed using calibration samples in the batch and quality control samples spread across the batch. Extent of brain-plasma ratio was calculated (Cb/Cp).

[2] = Object recognition task model; type: in vivo, Male Wistar rats; conditions: p.o.
Protocol: The cognition enhancing properties of compounds of this invention were estimated by using this model.
Male Wistar rats (230-280 grams) were used as experimental animals. Four animals were housed in each cage. Animals were kept on 20% food deprivation before one day and given water ad libitum throughout the experiment and maintained on a 12 hours light/dark cycle. Also the rats were habituated to individual arenas for 1 hour in the absence of any objects.
One group of 12 rats received vehicle (1 mL/Kg) orally and another set of animals received compound of the formula (I) either orally or i.p., before one hour of the familiar (T1) and choice trial (T2).
The experiment was carried out in a 50×50×50 cm open field made up of acrylic. In the familiarization phase, (T1), the rats were placed individually in the open field for 3 minutes, in which two identical objects (plastic bottles, 12.5 cm height×5.5 cm diameter) covered in yellow masking tape alone (a1 and a2) were positioned in two adjacent corners, 10 cms from the walls. After 24 hours of the (T1) trial for long-term memory test, the same rats were placed in the same arena as they were placed in T1 trial. Choice phase (T2) rats were allowed to explore the open field for 3 minutes in presence of one familiar object (a3) and one novel object (b) (Amber color glass bottle, 12 cm high and 5 cm in diameter). Familiar objects presented similar textures, colors and sizes. During the T1 and T2 trial, explorations of each object (defined as sniffing, licking, chewing or having moving vibrissae whilst directing the nose towards the object at a distance of less than 1 cm) were recorded separately by stopwatch. Sitting on an object was not regarded as exploratory activity, however, it was rarely observed.
T1 is the total time spent exploring the familiar objects (a1+a2).
T2 is the total time spent exploring the familiar object and novel object (a3+b).
The object recognition test was performed as described by Behaviour Brain Research, 31 (1988), 47-59.

[3] = Rodent pharmacokinetic study; type: in vivo, Male wistar rats; conditions: male, Wistar, plasma, rat; for bioavailability: 3 mg/kg oral vs 1 mg/kg intravenous
Protocol: Male wistar rats (225±25 grams) were used as experimental animals. Three to five animals were housed in each cage. Two days prior to dosing day, male wistar rats (225-250 grams) were anesthetized with isoflurane for surgical placement of jugular vein catheter. Animals were fasted overnight before oral dosing (p.o) and food pellets were allowed 2 hours post dosing, whereas during intravenous dosing food and water were provided as ad libitum. Three rats were dosed with test compounds (3 mg/kg) orally and intravenously (1 mg/kg).
At each time point blood was collected through jugular vein and immediately replenish with an equivalent volume of normal saline from freely moving rats. Collected blood was transferred into a labeled eppendr off containing 10 μL of heparin as anticoagulant. Typically blood samples were collected as following time points: Pre dose, 0.08 (only i.v.), 0.25, 0.5, 1, 2, 4, 6, 8, and 24 hours post dose-(n=3). Blood was centrifuged at 4000 rpm for 10 minutes. Plasma was prepared and stored frozen at −20° C. until analysis. The concentrations of the test compounds were quantified in plasma by qualified LC-MS/MS method using suitable extraction technique. The test compounds were quantified in the calibration range around 2-2000 ng/mL in plasma. Study samples were analyzed using calibration samples in the batch and quality control samples spread across the batch.
Pharmacokinetic parameters Cmax, Tmax, AUCt, T1/2 and Bioavailability were calculated by non-compartmental model using standard non-compartmental model by using WinNonLin 5.0.1 or Phoenix WinNonlin 6.2 version Software package.

hERG = biological target: T1, hERG (Homo sapiens, UniProt Q12809); assay: Automated hERG patch clamp assay; type: cell-based; conditions: hERG-HEK293 cells, whole cell patch clamp
T1 construct: expressed in transfected cells; host or cells: HEK293 (hERG-HEK293)
T1 sequence (Q12809 whole entry): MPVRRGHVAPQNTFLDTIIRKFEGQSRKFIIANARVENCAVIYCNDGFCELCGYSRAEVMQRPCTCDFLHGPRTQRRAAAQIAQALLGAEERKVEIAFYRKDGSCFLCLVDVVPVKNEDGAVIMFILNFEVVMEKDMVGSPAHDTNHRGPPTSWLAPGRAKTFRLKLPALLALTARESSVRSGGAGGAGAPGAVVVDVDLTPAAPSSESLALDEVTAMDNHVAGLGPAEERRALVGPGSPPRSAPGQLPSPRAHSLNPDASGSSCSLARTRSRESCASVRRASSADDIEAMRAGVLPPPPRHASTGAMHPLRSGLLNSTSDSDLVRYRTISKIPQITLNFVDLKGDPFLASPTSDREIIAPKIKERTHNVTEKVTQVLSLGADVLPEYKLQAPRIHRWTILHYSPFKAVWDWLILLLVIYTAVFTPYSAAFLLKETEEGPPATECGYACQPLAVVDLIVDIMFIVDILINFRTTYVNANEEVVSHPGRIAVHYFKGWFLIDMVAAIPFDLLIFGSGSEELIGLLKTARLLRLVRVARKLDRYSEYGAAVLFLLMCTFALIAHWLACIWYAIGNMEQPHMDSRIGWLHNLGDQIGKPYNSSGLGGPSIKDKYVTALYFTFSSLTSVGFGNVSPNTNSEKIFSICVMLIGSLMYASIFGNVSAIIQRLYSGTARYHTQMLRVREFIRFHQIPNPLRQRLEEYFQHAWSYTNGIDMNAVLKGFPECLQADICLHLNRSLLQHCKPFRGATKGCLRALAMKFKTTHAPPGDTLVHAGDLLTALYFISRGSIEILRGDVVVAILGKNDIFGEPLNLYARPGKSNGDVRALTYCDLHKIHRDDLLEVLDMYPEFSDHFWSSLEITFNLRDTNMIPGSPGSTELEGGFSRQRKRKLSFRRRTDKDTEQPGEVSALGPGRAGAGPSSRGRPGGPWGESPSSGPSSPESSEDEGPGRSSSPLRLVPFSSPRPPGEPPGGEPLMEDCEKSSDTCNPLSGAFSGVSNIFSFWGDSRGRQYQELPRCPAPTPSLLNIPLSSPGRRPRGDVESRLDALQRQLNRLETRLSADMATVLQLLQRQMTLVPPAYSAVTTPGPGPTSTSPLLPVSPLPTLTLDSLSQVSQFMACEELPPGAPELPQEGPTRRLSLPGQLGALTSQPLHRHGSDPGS
Protocol: To study the cardiac safety of test compounds using automated hERG patch clamp assay, hERG-HEK293 cells were grown to 70% confluency and were harvested using accumax. The cells were then suspended in complete media and were incubated at 37° C. and 5% CO2 for 30 minutes before using these cells for the whole cell patch clamp assay. Whole cell patch clamp recordings were conducted on Nanion's Patchliner using I-V protocol of voltage step from holding potential of −80 mV to +40 mV for 500 ms and then to test potential for 500 ms and back to holding potential of −80 mV. Pulses were elicited every 10 seconds. Each test compound concentration was incubated for 5 minutes. Data analysis was done by plotting the raw data using Igor Pro software and IC50 values were calculated. Cells with resistance >1 Gohms and tail currents of >200 pA were taken into consideration for data analysis. Quinidine was used as positive control.

[4] = biological target: T2, recombinant human 5-HT4 receptor (Homo sapiens, UniProt Q13639); assay: Determination of EC50 values for 5-HT4 receptor (CHO cells, pCRE-Luc reporter); type: cell-based; conditions: luciferase reporter, 4 hours incubation, read-out: 5-HT4 receptor agonistic binding in-vitro EC50
T2 construct: expressed in transfected cells
T2 sequence (Q13639 whole entry): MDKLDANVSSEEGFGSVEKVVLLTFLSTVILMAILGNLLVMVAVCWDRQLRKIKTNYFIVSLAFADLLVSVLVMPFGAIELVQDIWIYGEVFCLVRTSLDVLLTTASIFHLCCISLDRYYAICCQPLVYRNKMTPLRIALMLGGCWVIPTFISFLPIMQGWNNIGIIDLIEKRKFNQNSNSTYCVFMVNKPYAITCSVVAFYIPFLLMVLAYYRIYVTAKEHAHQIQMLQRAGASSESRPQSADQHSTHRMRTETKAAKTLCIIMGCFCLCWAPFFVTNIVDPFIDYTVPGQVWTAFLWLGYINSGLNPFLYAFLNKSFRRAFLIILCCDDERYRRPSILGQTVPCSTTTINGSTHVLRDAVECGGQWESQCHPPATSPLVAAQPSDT
Protocol: A stable CHO cell line expressing recombinant human 5-HT4 receptor and pCRE-Luc reporter system was used for cell-based assay. The assay offers a non-radioactive based approach to determine binding of a compound to GPCRs. In this specific assay, the level of intracellular cyclic AMP, which is modulated by activation, or inhibition of the receptor is measured. The recombinant cells harbor luciferase reporter gene under the control of cAMP response element.
The above cells were grown in 96 well clear bottom white plates in Hams F12 medium containing 10% fetal bovine serum (FBS). Prior to the addition of compounds or standard agonist, cells were serum starved overnight. Increasing concentrations of test compounds were added in OptiMEM medium to the cells. The incubation was continued at 37° C. in CO2 incubator for 4 hours. Medium was removed and cells were washed with phosphate buffered saline. The cells were lysed and luciferase activity was measured in a Luminometer. Luminescence units were plotted against the compound concentrations using Graphpad software. EC50 values of the compounds were defined as the concentration required in stimulating the luciferase activity by 50%.

SMILES: CC(C)(O)CN1CCC(F)(CNC(=O)c2cc(Cl)c(N)c3c2OCCC3)CC1.O=C(O)C(O)C(O)C(=O)O [Example 44, 5-Amino-6-chloro-N-{[4-fluoro-1-(2-hydroxy-2-methylpropyl)-4-piperidinyl]methyl}chroman-8-carboxamide L(+)-tartarate]
- Kp [1]: 0.78 ± 0.06
- Exploration time mean ± S.E.M, Familiar object ([2]; 3 mg/kg): 5.44 ± 1.02 s
- Exploration time mean ± S.E.M, Novel object ([2]; 3 mg/kg): 14.64 ± 2.19 s
- Inference ([2]; 3 mg/kg): Active
- AUC(0-t) ([3]; 1 mg/kg, intravenous (bolus)): 232 ± 14 ng·h/mL
- half-life ([3]; 1 mg/kg, intravenous (bolus)): 1.5 h
- bioavailability [3]: 25 ± 1%
- AUC(0-t) ([3]; 3 mg/kg, oral (gavage)): 176 ± 10 ng·h/mL
- Cmax ([3]; 3 mg/kg, oral (gavage)): 110 ± 25 ng/mL
- Tmax ([3]; 3 mg/kg, oral (gavage)): 0.33 h
- half-life ([3]; 3 mg/kg, oral (gavage)): 1.3 h
- IC50 (hERG): > 10000 nM

SMILES: CC(C)(O)CN1CC2C(CNC(=O)c3cc(Cl)c(N)c4c3OCCC4)C2C1 (stereo not drawn) [Example 37, 5-Amino-6-chloro-N-{[3-(2-hydroxy-2-methylpropyl)-3-azabicyclo[3.1.0]hex-6-yl]methyl}chroman-8-carboxamide L(+)-tartarate]
- EC50 [4]: 1.1 to 5 nM
- IC50 (hERG): > 10000 nM

SMILES: CC(C)(O)CN1CCC(F)(CNC(=O)c2cc(Br)c(N)c3c2OCCC3)CC1.O=C(O)C(O)C(O)C(=O)O [Example 48, 5-Amino-6-bromo-N-{[4-fluoro-1-(2-hydroxy-2-methylpropyl)-4-piperidinyl]methyl}chroman-8-carboxamide L(+)-tartarate]
- Kp [1]: 1 ± 0.16
- Exploration time mean ± S.E.M, Familiar object ([2]; 3 mg/kg): 7.02 ± 0.76 s
- Exploration time mean ± S.E.M, Novel object ([2]; 3 mg/kg): 13.80 ± 1.74 s
- Inference ([2]; 3 mg/kg): Active
- AUC(0-t) ([3]; 1 mg/kg, intravenous (bolus)): 211 ± 41 ng·h/mL
- half-life ([3]; 1 mg/kg, intravenous (bolus)): 1.5 h
- bioavailability [3]: 35 ± 5%
- AUC(0-t) ([3]; 3 mg/kg, oral (gavage)): 224 ± 33 ng·h/mL
- Cmax ([3]; 3 mg/kg, oral (gavage)): 167 ± 20 ng/mL
- Tmax ([3]; 3 mg/kg, oral (gavage)): 0.31 h
- half-life ([3]; 3 mg/kg, oral (gavage)): 1 h

SMILES: Cc1cc2c(N)c(Cl)cc(C(=O)NCC3(F)CCN(CC(C)(C)O)CC3)c2o1.O=C(O)C(O)C(O)C(=O)O [Example 53, 4-Amino-5-chloro-2-methyl-N-{[4-fluoro-1-(2-hydroxy-2-methylpropyl)-4-piperidinyl]methyl}benzofuran-7-carboxamide L(+)-tartarate]
- EC50 [4]: 10.1 to 20 nM
- Kp [1]: 2.53 ± 0.63
- Exploration time mean ± S.E.M, Familiar object ([2]; 0.3 mg/kg): 8.24 ± 1.32 s
- Exploration time mean ± S.E.M, Novel object ([2]; 0.3 mg/kg): 15.98 ± 1.75 s
- Inference ([2]; 0.3 mg/kg): Active
- AUC(0-t) ([3]; 1 mg/kg, intravenous (bolus)): 147 ± 17 ng·h/mL
- half-life ([3]; 1 mg/kg, intravenous (bolus)): 0.8 h
- bioavailability [3]: 27 ± 20%
- AUC(0-t) ([3]; 3 mg/kg, oral (gavage)): 250 ± 87 ng·h/mL
- Cmax ([3]; 3 mg/kg, oral (gavage)): 182 ± 26 ng/mL
- Tmax ([3]; 3 mg/kg, oral (gavage)): 0.33 h
- half-life ([3]; 3 mg/kg, oral (gavage)): 1.6 h
- IC50 (hERG): > 10000 nM

SMILES: CC(C)N1CC2C(CNC(=O)c3cc(Cl)c(N)c4c3OCC4)C2C1 (stereo not shown) [Example 20, 4-Amino-5-chloro-N-[(3-isopropyl-3-azabicyclo[3.1.0]hex-6-yl)methyl]-2,3-dihydrobenzofuran-7-carboxamide oxalate]
- EC50 [4]: 5.1 to 10 nM

SMILES: Nc1c(Br)cc(C(=O)NCC2C3CN(CC4CCOCC4)CC23)c2c1CCCO2 (stereo not drawn) [Example 12, 5-Amino-6-bromo-N-{[3-(tetrahydro-2H-pyran-4-ylmethyl)-3-azabicyclo[3.1.0]hex-6-yl]methyl}chroman-8-carboxamide L(+)-tartarate]
- EC50 [4]: 1.1 to 5 nM

SMILES: COC(=O)N1CCC(N2CC3C(CNC(=O)c4cc(Cl)c(N)c5ccoc45)C3C2)CC1 (stereo not shown) [Example 17, 4-Amino-5-chloro-N-{[3-(1-methoxycarbonylpiperidine-4-yl)-3-azabicyclo[3.1.0]hex-6-yl]methyl}benzofuran-7-carboxamide oxalate]
- EC50 [4]: 5.1 to 10 nM

SMILES: CC(C)(O)CN1CCC(CNC(=O)c2cc(Cl)c(N)c3c2OCCC3)CC1 [Example 41, 5-Amino-6-chloro-N-{[1-(2-hydroxy-2-methylpropyl)-4-piperidinyl]methyl}chroman-8-carboxamide L(+)-tartarate]
- EC50 [4]: 10.1 to 20 nM

SMILES: Nc1c(Cl)cc(C(=O)NCC2C3CN(CC4CCC4)CC23)c2c1CCO2 (stereo not shown) [Example 22, 4-Amino-5-chloro-N-{[3-(cyclobutylmethyl)-3-azabicyclo[3.1.0]hex-6-yl]methyl}-2,3-dihydrobenzofuran-7-carboxamide oxalate]
- EC50 [4]: 1.1 to 5 nM

SMILES: Cc1cc2c(N)c(Cl)cc(C(=O)NCC3C4CN(CC(C)(C)O)CC34)c2o1 (stereo not shown) [Example 54, 4-Amino-5-chloro-2-methyl-N-{[3-(2-hydroxy-2-methylpropyl)-3-azabicyclo[3.1.0]hex-6-yl]methyl}benzofuran-7-carboxamide]
- EC50 [4]: 5.1 to 10 nM

SMILES: Cc1cc2c(N)c(Cl)cc(C(=O)NCC3CCN(CC(C)(C)CO)CC3)c2o1 [Example 59, 4-Amino-5-chloro-2-methyl-N-{[1-(3-hydroxy-2,2-dimethylpropyl)-4-piperidinyl]methyl}benzofuran-7-carboxamide]
- EC50 [4]: ≤ 1 nM

SMILES: Nc1c(Cl)cc(C(=O)NCC2C3CN(CC4(O)CCOCC4)CC23)c2occc12 (stereo not shown) [Example 32, 4-Amino-5-chloro-N-{[3-(4-hydroxytetrahydro-2H-pyran-4-ylmethyl)-3-azabicyclo[3.1.0]hex-6-yl]methyl}benzofuran-7-carboxamide oxalate]
- EC50 [4]: 5.1 to 10 nM
